Results published in the Deep4Chem optical property database.

Test: photoluminescence quantum yield (fraction); solvent given as SMILES

COc1ccc(-c2nc3ccccc3oc2=O)cc1
photoluminescence quantum yield (in c1ccccc1): 0.076

CNc1ncc2nc(C(=O)OC)n(Cc3ccccc3)c2n1
photoluminescence quantum yield (in C1COCCO1): 0.65 | photoluminescence quantum yield (in CC#N): 0.66 | photoluminescence quantum yield (in CO): 0.61 | photoluminescence quantum yield (in ClCCl): 0.65

CC1(C)Cc2c(c3ccccc3c3nc4c(nc23)c2c(c3ccccc34)OC(C)(C)C2)O1
photoluminescence quantum yield (in C1CCCCC1): 0.43 | photoluminescence quantum yield (in C1COCCO1): 0.53 | photoluminescence quantum yield (in CC#N): 0.39 | photoluminescence quantum yield (in CC(C)O): 0.57 | photoluminescence quantum yield (in CCCCCC): 0.4 | photoluminescence quantum yield (in ClC(Cl)Cl): 0.43 | photoluminescence quantum yield (in c1ccccc1): 0.39

Cc1ccc(/C(C#N)=C/c2cc(/C=C(\C#N)c3ccc(C)cc3)c(-c3ccc(N(c4ccccc4)c4ccccc4)cc3)cc2-c2ccc(N(c3ccccc3)c3ccccc3)cc2)cc1
photoluminescence quantum yield (in C1CCCCC1): 0.093 | photoluminescence quantum yield (in C1CCOC1): 0.045 | photoluminescence quantum yield (in CCCCCC): 0.121 | photoluminescence quantum yield (in CCOC(C)=O): 0.049 | photoluminescence quantum yield (in Cc1ccccc1): 0.06 | photoluminescence quantum yield (in ClC(Cl)Cl): 0.048 | photoluminescence quantum yield (in ClCCl): 0.028

Cc1ccc(N(c2ccc(C)cc2)c2c3ccccc3c(N(c3ccc(C)cc3)c3ccc(C)cc3)c3ccccc23)cc1
photoluminescence quantum yield (in Cc1ccccc1): 0.95

O=C([O-])c1ccccc1C1=c2cc3c4c(c2Oc2c1cc1c5c2CCCN5CCC1)CCC[N+]=4CCC3
photoluminescence quantum yield (in CC#N): 1 | photoluminescence quantum yield (in CCO): 0.98 | photoluminescence quantum yield (in CN(C)C=O): 1 | photoluminescence quantum yield (in CO): 1 | photoluminescence quantum yield (in O): 0.99

COc1ccc(-c2ccc(-c3ccc(OC)cc3)cc2)cc1
photoluminescence quantum yield (in C1CCCCC1): 0.64

CC[N+]1(CC)CN2C(=N1)C(C(=O)O)=Cc1cc(Cl)ccc12
photoluminescence quantum yield (in O): 0.352

COc1ccc2c(c1)c1cc(OC)ccc1n2-c1cc(Cl)c([C](c2c(Cl)cc(Cl)cc2Cl)c2c(Cl)cc(Cl)cc2Cl)c(Cl)c1
photoluminescence quantum yield (in C1CCCCC1): 0.006

C(=C\c1nc2c3ccccc3c3ccccc3c2o1)/c1ccccc1
photoluminescence quantum yield (in CC#N): 0.23

O=[N+]([O-])c1ccc(O)c(-c2nc3c(c4c2-c2ccccc2CC4)-c2ccccc2CC3)c1
photoluminescence quantum yield (in ClCCl): 0.2

O=c1cc2cc(O)c3c(O)ccc4ccc(o1)c2c43
photoluminescence quantum yield (in CC1CCCO1): 0.52

CCCCCCCCCCCCN1C(=O)c2c(c3ccc4cc(-c5ccc(F)cc5)c(OC)cc4c3c3c2ccc2cc(-c4ccc(F)cc4)c(OC)cc23)C1=O
photoluminescence quantum yield (in ClCCl): 0.153

CCN(CC)c1ccc(C=Cc2nc3nc4ccccc4nc3s2)cc1
photoluminescence quantum yield (in CCO): 0.36

COC(=O)c1cccc2c1C#Cc1c(NC(C)=O)cccc1OCCCO2
photoluminescence quantum yield (in CC#N): 0.29 | photoluminescence quantum yield (in ClCCl): 0.33

CCN(CC)c1ccc([N+]2=Cc3ccc4c5c(ccc4c3O[B-]2(c2ccccc2)c2ccccc2)C=[N+](c2ccc(N(CC)CC)cc2)[B-](c2ccccc2)(c2ccccc2)O5)cc1
photoluminescence quantum yield (in Cc1ccccc1): 0.4 | photoluminescence quantum yield (in ClCCl): 0.29

CO[B-]1(OC)n2c(C)cc(C)c2C(c2ccc(I)cc2)=C2C(C)=CC(C)=[N+]21
photoluminescence quantum yield (in ClC(Cl)Cl): 0.52

c1cnc(-c2c3ccccc3c(-c3cncnc3)c3ccccc23)nc1
photoluminescence quantum yield (in CCO): 0.61 | photoluminescence quantum yield (in ClCCl): 0.78

COC(=O)COc1ccc(/C=C/C2=[N+]3C(=C(c4ccccc4)c4c(C)cc(C)n4[B-]3(F)F)C(C)=C2)cc1
photoluminescence quantum yield (in CO): 1

CN(c1ccccc1)c1ccc(N(c2ccccc2)c2ccc3ccc4c(N(c5ccccc5)c5ccc(N(C)c6ccccc6)cc5)ccc5ccc2c3c54)cc1
photoluminescence quantum yield (in ClCCl): 0.01

N#Cc1cccc(-c2nc(-c3ccccc3)c(-c3ccccc3)[nH]2)c1
photoluminescence quantum yield (in CO): 0.2

F[B-]1(F)n2c(ccc2-c2cccs2)C(C(F)(F)F)=C2C=CC(c3cccs3)=[N+]21
photoluminescence quantum yield (in CCCCCC): 1

COc1ccc(-n2nc(C(=O)N3CCCC3)c(N3CCCC3)n2)cc1
photoluminescence quantum yield (in CC#N): 0.555 | photoluminescence quantum yield (in CCCCCC): 0.94 | photoluminescence quantum yield (in CCO): 0.9 | photoluminescence quantum yield (in CN(C)C=O): 0.77 | photoluminescence quantum yield (in ClC(Cl)Cl): 0.64

Nc1cccc2cn[nH]c12
photoluminescence quantum yield (in CC#N): 0.3 | photoluminescence quantum yield (in CO): 0.11 | photoluminescence quantum yield (in O): 0.07

c1ccc(N(c2ccccc2)c2cc3c4c(c2)N(c2ccccc2)c2cc5c(cc2B4c2ccccc2N3c2ccccc2)B2c3ccccc3N(c3ccccc3)c3cc(N(c4ccccc4)c4ccccc4)cc(c32)N5c2ccccc2)cc1
photoluminescence quantum yield (in Cc1ccccc1): 0.74 | photoluminescence quantum yield (in Cc1ccccc1-c1cccc(Oc2cc3c4c(c2)Oc2cc(-c5ccccc5C)ccc2B4c2ccc(-c4ccccc4C)cc2O3)c1): 0.82

CC1=CC(/C=C/c2ccc(OCCCN=[N+]=[N-])cc2)=[N+]2C1=C(c1ccccc1)c1c(C)cc(C)n1[B-]2(F)F
photoluminescence quantum yield (in CO): 1

CCCCCCN1C(=O)c2cccc3cc(/N=C\c4cnc5ccccc5c4)cc(c23)C1=O
photoluminescence quantum yield (in ClC(Cl)Cl): 0.006

COC(=O)C(Cc1ccc2oc(-c3ccc(-n4c5ccccc5c5ccccc54)cc3)nc2c1)NC(=O)OC(C)(C)C (centres undefined)
photoluminescence quantum yield (in C1CCCCC1): 0.94 | photoluminescence quantum yield (in C1CCOC1): 0.53 | photoluminescence quantum yield (in C1COCCO1): 0.62 | photoluminescence quantum yield (in CC1CCCO1): 0.52 | photoluminescence quantum yield (in CC#N): 0.46 | photoluminescence quantum yield (in CC(C)(C)O): 0.81 | photoluminescence quantum yield (in CC(C)=O): 0.44 | photoluminescence quantum yield (in CC(C)CC(C)(C)C): 0.55 | photoluminescence quantum yield (in CC(C)O): 0.59 | photoluminescence quantum yield (in CC(O)CO): 0.55 | photoluminescence quantum yield (in CCCCCCCO): 0.65 | photoluminescence quantum yield (in CCCCCCO): 0.73 | photoluminescence quantum yield (in CCCCCO): 0.77 | photoluminescence quantum yield (in CCCCO): 0.69 | photoluminescence quantum yield (in CCO): 0.63 | photoluminescence quantum yield (in CCOC(C)=O): 0.54 | photoluminescence quantum yield (in CCOCC): 0.56 | photoluminescence quantum yield (in CN(C)C=O): 0.58 | photoluminescence quantum yield (in CO): 0.36 | photoluminescence quantum yield (in CS(C)=O): 0.47 | photoluminescence quantum yield (in Cc1ccccc1): 0.69 | photoluminescence quantum yield (in OCCO): 0.52

CCCCCCCCCCCCOc1cc2c3c(ccc4c5c(NC6CCCCC6)cc6c7c(ccc(c1c34)c75)C(=O)N(C1CCCCC1)C6=O)C(=O)N(C1CCCCC1)C2=O
photoluminescence quantum yield (in ClC(Cl)Cl): 0.01

C(=C\c1ccc(Nc2ccccc2)cc1)/c1ccccc1
photoluminescence quantum yield (in CC#N): 0.3 | photoluminescence quantum yield (in CCCCCC): 0.51

CC(C)[Si](C#Cc1c2nc3c(nc2c(C#C[Si](C(C)C)(C(C)C)C(C)C)c2nc4c(nc12)C1c2ccccc2C4c2ccccc21)C1c2ccccc2C3c2ccccc21)(C(C)C)C(C)C
photoluminescence quantum yield (in CCCCCC): 0.33

COc1ccc(C2=C(c3ccc(OC)cc3)C(c3ccc(OC)cc3)=[N+]3C2=C(c2ccc(OC)cc2)c2c(-c4ccc(OC)cc4)c(-c4ccc(OC)cc4)c(-c4ccc(OC)cc4)n2[B-]3(F)F)cc1
photoluminescence quantum yield (in C1CCOC1): 0.26

CCCCc1cc2cccc3cc(CCCC)c4cc(-c5cc6[b-]7c(c5)c(CCCC)cc5cccc(cc6CCCC)[n+]75)cc1[b-]4[n+]23
photoluminescence quantum yield (in C1CCCCC1): 0.06

Cc1cc(N2c3ccccc3C(C)(C)c3ccccc32)ccc1-c1cc(-c2ccc(N3c4ccccc4C(C)(C)c4ccccc43)cc2C)ncn1
photoluminescence quantum yield (in O=P(c1ccccc1)(c1ccccc1)c1ccccc1Oc1ccccc1P(=O)(c1ccccc1)c1ccccc1): 0.71

CC(C)[Si](C#Cc1ccc(C#C[Si](C(C)C)(C(C)C)C(C)C)c2nc3c(nc12)Cc1ccccc1-3)(C(C)C)C(C)C
photoluminescence quantum yield (in CCCCCC): 0.04

Cc1ccc2oc(-c3cc4cc(C)ccc4oc3=O)cc2c1
photoluminescence quantum yield (in CS(C)=O): 0.83

C(=C\c1ccc(-c2ccc(/C=C/c3ccc(-n4c5ccccc5c5ccccc54)cc3)s2)s1)/c1ccc(-n2c3ccccc3c3ccccc32)cc1
photoluminescence quantum yield (in C1CCOC1): 0.1 | photoluminescence quantum yield (in CC#N): 0.09 | photoluminescence quantum yield (in CC(C)=O): 0.09 | photoluminescence quantum yield (in CN(C)C=O): 0.11 | photoluminescence quantum yield (in Cc1ccccc1): 0.11

Cc1cc(-c2ccccc2C)cc(C)[o+]1
photoluminescence quantum yield (in CC#N): 0.1 | photoluminescence quantum yield (in ClCCl): 0.05

Cc1ccc(-c2cccc3ncc(-c4ccccc4)n23)cc1
photoluminescence quantum yield (in ClCCl): 0.28

Cc1ccc(-c2ccc3ccc4cc(C(C)(C)C)cc5ccc2c3c45)cc1
photoluminescence quantum yield (in C1CCOC1): 0.41 | photoluminescence quantum yield (in ClCCl): 0.38

CN(C)c1ccc(C#Cc2cc(C#Cc3ccc(N(C)C)cc3)c3ccc4c(C#Cc5ccc(C(F)(F)F)cc5)cc(C#Cc5ccc(N(C)C)cc5)c5ccc2c3c54)cc1
photoluminescence quantum yield (in ClCCl): 0.65

O=C1c2ccccc2-c2cc3ccccc3c(=O)n21
photoluminescence quantum yield (in CC#N): 0.16 | photoluminescence quantum yield (in CO): 0.02 | photoluminescence quantum yield (in CS(C)=O): 0.12 | photoluminescence quantum yield (in ClC(Cl)Cl): 0.18

Cc1cc(-c2ccc(-c3ccccc3)cc2)cc(C)[o+]1
photoluminescence quantum yield (in ClCCl): 0.78

Oc1ccc(-c2cccs2)cc1-c1nc2ccccc2s1
photoluminescence quantum yield (in CCO): 0.0473 | photoluminescence quantum yield (in ClCCl): 0.0242

CCCCC(CC)COc1ccc2nc(-c3ccc(-c4c(C)noc4C)s3)sc2c1 (centres undefined)
photoluminescence quantum yield (in ClCCl): 0.72

O=c1c2ccccc2c2c3c(cccc13)c(-c1ccccc1)c1c3cccc4cccc(c43)c12
photoluminescence quantum yield (in CC#N): 0.91 | photoluminescence quantum yield (in CO): 0.97

CC1(C)Cc2c(c3ccccc3c3nc4c5c(c6ccccc6c4nc23)OC(C)(C)C5)O1
photoluminescence quantum yield (in C1CCCCC1): 0.42 | photoluminescence quantum yield (in C1COCCO1): 0.47 | photoluminescence quantum yield (in CC#N): 1 | photoluminescence quantum yield (in CC(C)O): 1 | photoluminescence quantum yield (in CCCCCC): 0.27 | photoluminescence quantum yield (in CO): 1 | photoluminescence quantum yield (in ClC(Cl)Cl): 0.53 | photoluminescence quantum yield (in c1ccccc1): 0.52

COc1ccc(-c2nc3ccccc3nc2-c2ccc(OC)cc2)cc1
photoluminescence quantum yield (in ClC(Cl)Cl): 0.18

F[B-]1(F)n2c(cc3sc4ccccc4c32)C(c2ccc(I)cc2)=C2C=c3sc4ccccc4c3=[N+]21
photoluminescence quantum yield (in ClC(Cl)Cl): 0.05

CCCCCOc1cc2oc(=O)c3c4ccc(C#N)cc4c4ccc5cccc6c(c1)c2c3c4c56
photoluminescence quantum yield (in C1CCOC1): 0.499

Cc1ccc(N(c2ccc(C)cc2)c2ccc(-c3ccc4c(c3)C(=O)c3ccccc3C4=O)cc2)cc1
photoluminescence quantum yield (in C1CCOC1): 0 | photoluminescence quantum yield (in CCCCCC): 0.403 | photoluminescence quantum yield (in CCOC(C)=O): 0 | photoluminescence quantum yield (in CCOCC): 0.0041 | photoluminescence quantum yield (in Cc1ccccc1): 0.0801 | photoluminescence quantum yield (in ClC(Cl)(Cl)Cl): 0.246 | photoluminescence quantum yield (in ClCCl): 0

C(S/C=C/c1ccc(-c2ccc(/C=C/SC=C3CCCC3)cc2)cc1)=C1CCCC1
photoluminescence quantum yield (in ClCCl): 0.182

c1ccc(-c2cc(-c3nnc(-c4ccc(N5c6ccccc6Oc6ccccc65)cc4)o3)c(-c3ccccc3)c(-c3ccccc3)c2-c2ccccc2)cc1
photoluminescence quantum yield (in Cc1ccccc1): 0.264 | photoluminescence quantum yield (in c1ccc(-n2c(-c3c(-n4c5ccccc5c5ccccc54)cccc3-n3c4ccccc4c4ccccc43)nc3ccccc32)cc1): 0.93
